This note sets out measurements from ChEMBL document CHEMBL1131967, “BN 80927: a novel homocamptothecin with inhibitory activities on both topoisomerase I and topoisomerase II” (Bioorg Med Chem Lett, 1999).

Assay type in all cases: functional, cell-based
The test system of one assay is HT-29. In words: Antiproliferative activity against human HT-29 colon cell line.
The next assay relates to MCF7. Description: Antiproliferative activity against human MCF-7 breast cell line.
A further assay relates to DU-145. In words: Antiproliferative activity against human DU145 prostate cell line.
The test system of a further assay is SK-OV-3. Description: Antiproliferative activity against human SKOV-3 ovarian cell line.

The IC50 is the concentration that gives 50% inhibition. High values mean a need for much substance, low ones inhibition by little substance. On to `CN(C)CCNC(=O)c1cccc2cc3ccccc3nc12`, for which the IC50 in the assay with HT-29 is greater than 10000 nM; in the assay with MCF7 it was 3800 nM; in the assay with DU-145, 2300 nM; in the assay on SK-OV-3, 2400 nM.

For the molecule `CCc1c2c(nc3ccc(O)cc13)-c1cc3c(c(=O)n1C2)COC(=O)[C@]3(O)CC` [7-ETHYL-10-HYDROXYCAMPTOTHECIN], the IC50 with HT-29 amounted to 22 nM; in the assay with MCF7, 370 nM; in the assay with DU-145, 13 nM; in the assay with SK-OV-3, 720 nM.

In the case of `COc1cc([C@@H]2c3cc4c(cc3[C@@H](O[C@@H]3O[C@@H]5CO[C@@H](C)O[C@H]5[C@H](O)[C@H]3O)[C@H]3COC(=O)[C@H]23)OCO4)cc(OC)c1O` [ETOPOSIDE], the IC50 came out at 200 nM with HT-29, 100000 nM with MCF7, 1300 nM in the assay with DU-145 and 4900 nM in the assay on SK-OV-3.

As to `Cc1cnc(NCCCN(C)C)c2c1[nH]c1ccc3cc(O)ccc3c12` [INTOPLICINE], the IC50 is 890 nM with HT-29, 1000 nM with MCF7, 560 nM with DU-145 and 450 nM in the assay with SK-OV-3.
